Results as given in US10961202B2, “Bis-benzimidazole compounds and methods of using the same” (THE SCRIPPS RESEARCH INSTITUTE, priority 2017, dated 2021).

Key:
[1] = test system: MBNL1 exon 5 inclusion in DM1 myotubes; assay: Myotube splicing rescue assay (MBNL1 exon 5 inclusion); assay type: cell-based, human; details: 48-hour incubation
[2] = test system: r(CUG)12-MBNL1 complex; assay: Inhibition of the r(CUG)12-MBNL1 complex measured by TR-FRET; assay type: biochemical; details: 80 nM RNA, 60 nM MBNL1-His6

Structure (SMILES)	IC50 ([2]; Table M)	IC50 ([2]; Table L)	MBNL1 % splicing rescue at 10 μM [1]	MBNL1 % splicing rescue at 1 μM [1]
[N-]=[N+]=NCCN1CCN(CCNC(=O)c2ccc3nc(-c4ccc(-c5nc6ccc(C(=O)NCCN7CCCCC7)cc6[nH]5)cc4)[nH]c3c2)CC1 [Compound 172, N-(2-(4-(2-azidoethyl)piperazin-1-yl)ethyl)-2-(4-(6-((2-(piperidin-1-yl)ethyl)carbamoyl)-1H-benzo[d]imidazol-2-yl)phenyl)-1H-benzo[d]imidazole-6-carboxamide]	28.3 µM	–	14.2%	22.1%
N=C(N)NCCC(=O)Nc1ccc2nc(-c3ccc(-c4nc5ccc(NC(=O)CCNC(=N)N)cc5[nH]4)cc3)[nH]c2c1 [Compound 65]	–	3.6 µM	–	31.7%
O=C(NCCN1CCCCC1)c1ccc(-c2nc3cc(-c4ccc5[nH]c(-c6ccc(C(=O)NCCN7CCCCC7)cc6)nc5c4)ccc3[nH]2)cc1 [Compound 116]	–	5.3 µM	74.7%	–
CN(C)CCSc1ccc2nc(-c3ccc(-c4nc5ccc(SCCN(C)C)cc5[nH]4)cc3)[nH]c2c1 [Compound 59, 2,2′-((2,2′-(1,4-phenylene)bis(1H-benzo[d]imidazole-6,2-diyl))bis(sulfanediyl))bis(N,N-dimethylethanamine)]	–	10.8 µM	−17.6%	–
COc1cc(-c2nc3ccc(OCCCN(C)C)cc3[nH]2)c(OCc2ccccc2)cc1-c1nc2cc(OCCCN(C)C)ccc2[nH]1 [Compound 307, 3-((2-(2-(benzyloxy)-4-(5-(3-(dimethylamino)propoxy)-1H-benzo[d]imidazol-2-yl)-5-methoxyphenyl)-1H-benzo[d]imidazol-6-yl)oxy)-N,N-dimethylpropan-1-amine]	15.8 µM	–	18.1%	–
CN(C)CCCOc1ccc2nc(-c3ccc(-c4nc5ccc(OCCCN(C)C)cc5[nH]4)c(OCCCl)c3)[nH]c2c1 [Compound 267, 3,3′-(((2-(2-chloroethoxy)-1,4-phenylene)bis(1H-benzo[d]imidazole-2,6-diyl))bis(oxy))bis(N,N-dimethylpropan-1-amine)]	10.9 µM	–	1.8%	–
COc1cc(-c2nc3ccc(OCCCN(C)C)cc3[nH]2)c(O)cc1-c1nc2cc(OCCCN(C)C)ccc2[nH]1 [Compound 308]	1.8 µM	–	−24.4%	–
CN(CC(=O)NCCN1CCN(CCNC(=O)c2ccc3nc(-c4ccc(-c5nc6ccc(C(=O)NCCN7CCCCC7)cc6[nH]5)cc4)[nH]c3c2)CC1)CC(=O)NCCN1CCN(CCNC(=O)c2ccc3nc(-c4ccc(-c5nc6ccc(C(=O)NCCN7CCCCC7)cc6[nH]5)cc4)[nH]c3c2)CC1 [Compound 405]	–	–	−2.5%	–
CN(C)CCNC(=O)c1ccc2nc(-c3ccc4cc(-c5nc6ccc(C(=O)NCCN(C)C)cc6[nH]5)ccc4c3)[nH]c2c1 [Compound 462]	–	–	−2.7%	–
CC(=O)NCCNC(=O)c1ccc2nc(-c3ccc(-c4nc5ccc(C(=O)NCCNC(C)=O)cc5[nH]4)cc3)[nH]c2c1 [Compound 51, 2,2′-(1,4-phenylene)bis(N-(2-acetamidoethyl)-1H-benzo[d]imidazole-6-carboxamide)]	–	> 200 µM	–	–
NC(=O)c1ccc2nc(-c3ccc(-c4nc5ccc(C(N)=O)cc5[nH]4)cc3)[nH]c2c1 [Compound 12, 2,2′-(1,4-phenylene)bis(1H-benzo[d]imidazole-6-carboxamide)]	–	> 200 µM	–	–
CN(C)CCCOc1ccc2nc(-c3ccc(-c4nc5ccc(OCCCN(C)C)cc5[nH]4)nn3)[nH]c2c1 [Compound 292]	14 µM	–	–	–
N#Cc1ccc(-c2nc3cc(-c4ccc5[nH]c(-c6ccc(C#N)cc6)nc5c4)ccc3[nH]2)cc1 [Compound 100]	–	6.2 µM	–	–
CN(C)CCCOc1cccc2nc(-c3ccc(-c4nc5cccc(OCCCN(C)C)c5[nH]4)cc3)[nH]c12 [Compound 215, 3,3′-((2,2′-(1,4-phenylene)bis(1H-benzo[d]imidazole-7,2-diyl))bis(oxy))bis(N,N-dimethylpropan-1-amine)]	20.5 µM	–	–	–
CN1CCC[C@H]1COc1ccc2nc(-c3ccc(-c4nc5ccc(O)cc5[nH]4)cc3)[nH]c2c1 [Compound 196]	106 µM	–	–	–
N#Cc1cccc(-c2nc3cc(-c4ccc5[nH]c(-c6cccc(C#N)c6)nc5c4)ccc3[nH]2)c1 [Compound 120]	–	> 200 µM	–	–
CN(C)CCOc1ccc2nc(-c3ccc(-c4nc5ccc(OCCN(C)C)cc5[nH]4)cc3)[nH]c2c1 [Compound 57, 2,2′-((2,2′-(1,4-phenylene)bis(1H-benzo[d]imidazole-6,2-diyl))bis(oxy))bis(N,N-dimethylethanamine)]	–	119 µM	–	–

Second part, led by results:

IC50 ([2]; Table M)	IC50 ([2]; Table L)	Structure (SMILES)	MBNL1 % splicing rescue at 10 μM [1]	MBNL1 % splicing rescue at 1 μM [1]
7.48 µM	–	CN(C)CCCNC(=O)c1ccc(-c2nc3cc(-c4ccc5[nH]c(-c6ccc(C(=O)NCCCN(C)C)cc6)nc5c4)ccc3[nH]2)cc1 [Compound 393]	17.1%	–
31.9 µM	–	CN1CCN(Cc2ccc(-c3nc4cc(-c5ccc6[nH]c(-c7ccc(CN8CCN(C)CC8)cc7)nc6c5)ccc4[nH]3)cc2)CC1 [Compound 337]	73.3%	57.2%
16.7 µM	–	C#CCCCCN(C)CCNC(=O)CCCOc1ccc2[nH]c(-c3ccc(-c4nc5cc(OCCCN(C)C)ccc5[nH]4)cc3)nc2c1 [Compound 320]	88.2%	–
3.03 µM	–	O=C(NCCN1CCN(CCNC(=O)c2ccc3nc(-c4ccc(-c5nc6ccc(C(=O)NCCN7CCCCC7)cc6[nH]5)cc4)[nH]c3c2)CC1)NCCN1CCN(CCNC(=O)c2ccc3nc(-c4ccc(-c5nc6ccc(C(=O)NCCN7CCCCC7)cc6[nH]5)cc4)[nH]c3c2)CC1 [Compound 406, N,N′-((((carbonylbis(azanediyl))bis(ethane-2,1-diyl))bis(piperazine-4,1-diyl))bis(ethane-2,1-diyl))bis(2-(4-(6-((2-(piperidin-1-yl)ethyl)carbamoyl)-1H-benzo[d]imidazol-2-yl)phenyl)-1H-benzo[d]imidazole-6-carboxamide)]	54.3%	9.4%
16.8 µM	–	CN(C)CCCOc1ccc(-c2nc3cc(-c4ccc5[nH]c(-c6ccc(O)cc6)nc5c4)ccc3[nH]2)cc1 [Compound 348]	75.3%	75.3%
3.28 µM	–	CN(C)CCNC(=O)c1ccc(-c2nc3cc(-c4ccc5[nH]c(-c6ccc(C(=O)NCCNC(=O)c7ccc(-c8nc9cc(-c%10ccc%11[nH]c(-c%12ccc(C(=O)NCCN(C)C)cc%12)nc%11c%10)ccc9[nH]8)cc7)cc6)nc5c4)ccc3[nH]2)cc1 [Compound 412]	–	–
6.7 µM	–	C[C@@H](CNC(=O)c1ccc(-c2nc3ccc(-c4ccc5nc(-c6ccc(C(=O)NCCN(C)C)cc6)[nH]c5c4)cc3[nH]2)cc1)NC(=O)c1ccc(-c2nc3ccc(-c4ccc5nc(-c6ccc(C(=O)NCCN(C)C)cc6)[nH]c5c4)cc3[nH]2)cc1 [Compound 442]	–	–
8.86 µM	–	CN(C)CCCSc1ccc(-c2nc3cc(-c4ccc5[nH]c(-c6ccc(C(=O)NCCN(C)C)cc6)nc5c4)ccc3[nH]2)cc1 [Compound 387]	–	–
1.91 µM	–	CC(CNC(=O)c1ccc(-c2nc3cc(-c4ccc5[nH]c(-c6ccc(C(=O)NCCN(C)C)cc6)nc5c4)ccc3[nH]2)cc1)NC(=O)c1ccc(-c2nc3cc(-c4ccc5[nH]c(-c6ccc(C(=O)NCCN(C)C)cc6)nc5c4)ccc3[nH]2)cc1 (stereo not shown) [Compound 411]	–	–
21.5 µM	–	CN(C)CCOCCOc1ccc(-c2nc3cc(-c4ccc5[nH]c(-c6ccc(OCCOCCN(C)C)cc6)nc5c4)ccc3[nH]2)cc1 [Compound 367]	–	–
